According to patent US11000538B2, “Composition for enhancing exercise ability or anti-fatigue comprising novel ginsenoside” (priority 2018, dated 2021):
Entries after “also recorded” stand apart in the source; their conditions may differ.

Assays:
[1] = tested on: mouse-derived myocyte lines (C2C12; ATCC); experiment: Mitochondrial production in differentiated myocytes (Mitotracker Green staining, Q-PCR of mitochondrial marker genes); type: cell-based; settings: 20 pg/ml, 24 hours
Procedure: (§1) Ginseng seed-derived ginsenosides were administered to mouse-derived myocyte lines (C2C12; ATCC) to observe changes in mitochondrial amount and fatty acid oxidation in myocytes.
(§2) The mouse-derived myocyte lines (C2C12; ATCC) were cultured using Dulbecco's Modified Eagle's Medium (DMEM; Sigma) containing […] fetal bovine serum (Hyclone) and 1% penicillin/streptomycin (Sigma). The cells were induced to be 100% confluent for differentiation into myocytes and then differentiated using a DMEM medium containing 2% horse serum (Hyclone) and 1% penicillin/streptomycin (Sigma). Medium was changed daily, with differentiation for a total of a week.
(§3) After treating the differentiated myocytes with the novel ginsenoside GS #10 of one embodiment of the present disclosure and the other ginsenosides GS #01-GS #06 isolated from the existing ginseng seed extract at a concentration of 20 pg/ml for 24 hours, respectively, the amount of mitochondria in myocytes was observed by staining with a Mitotracker Green™ (Invitrogen) reagent. mRNA expression levels of mitochondrial marker genes were measured using Q-PCR. As positive controls, a combination of GW501516 and Metformin (GW/Met; treated at 10 μM each), which are candidates for exercise mimetics and are known to improve exercise ability by activating PPARδ (Peroxisome proliferator-activated receptor delta) and AMPK (AMP-activated protein kinase), respectively, was used. The mitochondrial number measured as a result of the test is shown in FIG. 11, and the mitochondrial marker gene expression levels are shown in FIGS. 12 to 14.
(§4) The experiments were performed in the same manner as in Test Examples 1 and 2 above, respectively.
(§5) First, the C2C12 myocytes differentiated in the same manner as in Test Example 1 above were treated with ginsenosides Rg1, Rg3, and Rb1, which are comparative examples of the present disclosure, and the novel ginsenoside GS #10 of one embodiment of the present disclosure, respectively, and then mitochondria and marker genes were observed (FIGS. 21 to 25). In addition, in the same manner as in Test Example 2 above, after administration of 20 mg/kg each of ginsenosides Rg1, Rg3, Rb1, which are comparative examples of the present disclosure, and the novel ginsenoside GS #10 of one embodiment of the present disclosure for 6 weeks to the mice, the exercise ability was observed.

[2] = tested on: mouse-derived myocyte lines (C2C12; ATCC); experiment: Fatty acid oxidation in differentiated myocytes; type: cell-based; settings: 20 pg/ml, 24 hours, FIG. 15
Procedure: as §1, §2
as §3, with “As positive controls, a combination of GW501516 and Metformin (GW/Met; treated at 10 μM each), which are candidates for exercise mimetics and are known to improve exercise ability by activating PPARδ (Peroxisome proliferator-activated receptor delta) and AMPK (AMP-activated protein kinase), respectively, was used.” left out

Sprague-Dawley (SD) mice = experiment: Treadmill experiment after 6 weeks of oral administration (muscle mitochondrial genes, exercise time, plasma lactate); type: in vivo; settings: 20 mg/kg orally for 6 weeks; for expression of mitochondrial marker gene in muscle (mitochondrial activity): muscle tissue after treadmill, FIGS. 16-18; for exercise time / exercise ability on treadmill: run until exhausted, FIGS. 19, 25
Procedure: The following experiment was performed to confirm whether the exercise ability improving effect due to the increased mitochondrial production and lipid metabolism promotion of the ginseng seed-derived novel ginsenoside (GS #10) confirmed in Test Example 1 above was also shown at the actual individual level. 20 mg/kg each of the novel ginsenoside GS #10 of one embodiment of the present disclosure and the other ginsenosides GS #01-GS #06 isolated from the existing ginseng seed extract was orally administered to 39-week-old female Sprague-Dawley (SD) mice, and 10 mg/kg each thereof was orally administered to the control group GW/Met for 6 weeks. In order to improve the treadmill adaptability during the six-week experiment, mice were placed on the treadmill every two weeks to familiarize them with the use of the treadmill. After six weeks of administration, mice were placed on a treadmill to run on the treadmill. The exercise time was until the mice were exhausted and pushed down from the treadmill, and the mice which finished the exercise was immediately extracted of muscle tissue and plasma by necropsy. […] The expression patterns of mitochondrial marker genes in muscle are shown in FIGS. 16 to 18, and exercise time and plasma lactate in blood are shown in FIGS. 19 and 20.
as §4, §5

SH-SY5Y cells = experiment: Cytotoxicity, Cell Counting Kit (CCK)-8; type: cell-based; settings: SH-SY5Y cells, 0.1, 1, 5, 10, 20 and 50 μM; FIG. 27
Procedure: The cell growth in the presence of novel ginsenoside GS #10 of one embodiment of the present disclosure was evaluated using Cell Counting Kit (CCK)-8 in order to exclude the possibility that ginsenosides may affect exercise ability enhancing efficacy through cytotoxic activity. The experimental method is as follows.
10 μl of a CCK-8 reagent was added to SH-SY5Y cells in culture (Dojindo, Md., USA) with reference to a 96-well plate and left at 37° C. for 2 hours, and then absorbance was measured at 450 nm. The cell viability was marked as a percentage (%) of the absolute optical density of each sample relative to the untreated sample. At this time, the concentration of the novel ginsenoside GS #10, which is an example of the present disclosure, contained in the medium in which the cells were cultured was 0.1, 1, 5, 10, 20, and 50 μM, respectively.

[3] = tested on: C2C12 myoblasts induced with chronic inflammation (IL-6); experiment: Cell growth recovery of myoblasts with IL-6-induced chronic inflammation; type: cell-based, mouse; settings: IL-6 10 ng/ml for 4 weeks, then 10 pg/ml for 48 hours; FIGS. 28, 32
Source text: Muscle cells are made from myosatellite cells present inside the muscle. They are usually in a quiescent state, and when muscle damage such as exercise is applied, they wake up and are divided to form myoblasts, and these myoblasts differentiate to form myocytes. These muscle stem cells are known to decrease in number and activity with age. In this process, the inflammatory response, especially IL-6 is involved. Therefore, it was confirmed through the following experiment whether the novel ginsenoside of the embodiment of the present disclosure can restore cell division of muscle stem cells under IL-6-mediated muscle stem cell growth inhibition conditions.
Since muscle stem cells are not available in the form of cell lines, mouse-derived muscle cell lines (C2C12, ATCC) located between muscle stem cells and myoblasts were cultured using Dulbecco's Modified Eagle's Medium (Sigma) containing 10% fetal bovine serum (Hyclone) and 1% penicillin/streptomycin (Sigma). […] Accordingly, in order to induce an inflammatory state due to aging, IL-6 (10 ng/ml) was treated for 4 weeks to induce myoblast aging. […] Myoblasts of this state were treated with the novel ginsenoside GS #10 of one embodiment of the present disclosure and the other ginsenosides GS #01-GS #06 isolated from the existing ginseng seed extract at a concentration of 10 pg/ml each for 48 hours. […]

C2C12 myoblasts = experiment: Myocyte differentiation promotion (mRNA of MyoG, α-actin, myosin); type: cell-based, mouse; settings: 10 pg/ml during 4 days of differentiation in 2% horse serum; FIGS. 29-31, 33-35
Procedure: As muscles decrease with age, supplementing muscle mass by differentiating myoblasts into myocytes is an essential process for maintaining muscle mass. […] During the differentiation period, the novel ginsenoside GS #10 of one embodiment of the present disclosure and the other ginsenosides GS #01-GS #06 isolated from the existing ginseng seed extract were treated at a concentration of 10 pg/ml, respectively. The control is differentiation medium not treated with ginsenosides. […] After 4 days of differentiation, mRNA was extracted from each treatment group using Trizol™ reagent (Thermo Fisher Scientific), and then cDNA was synthesized using a RevertAid 1st strand cDNA synthesis kit (Thermo Fisher Scientific). The expression levels of myoG, α-actin and myosin, which are muscle fiber marker genes, were observed using a temperature-cycling nucleic acid amplifier (CFX96 thermocycle, Bio-Rad).
The experiment was performed in the same manner as in Test Examples 5 and 6.

Balb/c mice = experiment: Anti-fatigue efficacy in sleep-deprivation fatigue model (forced swim test, plasma lactate); type: in vivo; settings: oral, 2 weeks; GS #10 10 and 50 mg/kg, ginseng seed extract 50 mg/kg; 24 hours sleep deprivation; FIGS. 36, 37
Source text: In Test Example 2 above, it was confirmed that the novel ginsenoside GS #10 of one embodiment of the present disclosure improved exercise ability and lowered plasma lactate in blood that is increased by exercise. […] Experimental methods are the same as those described in Cho et al., Biol Pharm Bull 33 (7):1128, which is incorporated herein by reference in its entirety. Balb/c mice purchased from Samtako were adapted to the age of 12 weeks and then divided into a fatigue-induced group of 32 mice and a control of 8 mice. The fatigue-induced group was divided into 4 groups again, each of 8 mice, of which is the novel ginsenoside GS #10 10 mg/kg treatment group (F/GS #10 10), 50 mg/kg treatment group (F/GS #10 50), ginseng seed extract 50 mg/kg treatment group (F/GSE #10 50), and untreated group (Fatigue). The ginseng seed extract is a comparative example of the present disclosure, and is a ginseng seed (seeds of Panax ginseng) methanol extract used in the isolation of ginsenoside in Example 1 described above herein. […] Then, while performing the FST (forced swim test) 6 minutes, the time during which the mice of each experiment group floated still on the water without swimming was measured to calculate fatigue. Thereafter, the plasma lactate in blood was measured, and the degree of accumulation of the fatigue substance was observed. […]

Compound | mitochondrial biosynthesis ability / mitochondria production (mitochondrial number; PGC1α, NRF1, tfam expression) ([1]; FIGS. 11-14, 21-24) | fatty acid oxidation in myocytes [2] | lactic acid concentration (plasma lactate), muscle fatigue marker (Sprague-Dawley (SD) mice; blood after treadmill, FIGS. 20, 26) | expression of mitochondrial marker gene in muscle (mitochondrial activity) (Sprague-Dawley (SD) mice) | exercise time / exercise ability on treadmill (Sprague-Dawley (SD) mice) | cytotoxicity (cell viability, % of untreated) (SH-SY5Y cells) | cell growth recovery of aged myoblasts (number of cells) [3] | myocyte differentiation marker gene expression (MyoG, α-actin, myosin) (C2C12 myoblasts) | fatigue relief (FST immobility time, plasma lactate) (Balb/c mice) | mitochondrial biosynthesis ability / mitochondria production (mitochondrial number; PGC1α, NRF1, tfam expression) ([1]; FIGS. 11-14, 21-24, listed as Rb1)
C[C@@H]1CC(=O)C(C)(C)C2C1C1C[C@@H](O)C3C([C@]4(C)CC[C@H](C(C)(C)O)O4)CC[C@@]3(C)[C@]1(C)C[C@@H]2O[C@H]1OC(CO)[C@H](O)C(O)C1O[C@H]1OC(CO)[C@H](O)C(O)C1O (stereo partly drawn) [GS #10, (20S,24R)-6-O-β-D-glucopyranosyl(1→2)-β-D-glucopyranoside-dammar-3-one-20,24-epoxy-6a,12b,25-triol] | the most excellent; also recorded: showed mitochondria increasing efficacy | increased the most | the lowest pattern; also recorded: anti-fatigue effect | significantly increased | doubled the exercise time; also recorded: significant exercise ability improvement | did not exhibit cytotoxicity up to 50 μM | a significant effect; also recorded: showed the effects of promoting myoblast growth | a significant increase in marker gene expression; also recorded: myocyte differentiation | reduce the symptoms caused by fatigue in a concentration-dependent manner | –
CC(C)=CCC[C@](C)(O[C@@H]1O[C@H](CO[C@@H]2OC[C@H](O)[C@H](O)[C@H]2O)[C@@H](O)[C@H](O)[C@H]1O)[C@H]1CC[C@]2(C)[C@@H]1[C@H](O)C[C@@H]1[C@@]3(C)CC[C@H](O[C@@H]4O[C@H](CO)[C@@H](O)[C@H](O)[C@H]4O[C@@H]4O[C@H](CO)[C@@H](O)[C@H](O)[C@H]4O)C(C)(C)[C@@H]3CC[C@]12C [GS #06, ginsenoside Rb2, reference compound] | a slight mitochondria increasing efficacy | – | – | insignificant | insignificant | – | – | – | – | –
CC(C)=CCC[C@](C)(O[C@@H]1O[C@H](CO[C@@H]2O[C@H](CO)[C@@H](O)[C@H](O)[C@H]2O)[C@@H](O)[C@H](O)[C@H]1O)[C@H]1CC[C@]2(C)[C@@H]1[C@H](O)C[C@@H]1[C@@]3(C)CC[C@H](O[C@@H]4O[C@H](CO)[C@@H](O)[C@H](O)[C@H]4O[C@@H]4O[C@H](CO)[C@@H](O)[C@H](O)[C@H]4O)C(C)(C)[C@@H]3CC[C@]12C [GS #05, ginsenoside Rb1, reference compound] | a slight mitochondria increasing efficacy | – | – | insignificant | insignificant | – | – | – | – | did not increase mitochondria production
CC(C)=CCC[C@](C)(O[C@@H]1O[C@H](CO)[C@@H](O)[C@H](O)[C@H]1O)[C@H]1CC[C@]2(C)[C@@H]1[C@H](O)C[C@@H]1[C@@]3(C)CC[C@H](O)C(C)(C)[C@@H]3[C@@H](O[C@@H]3O[C@H](CO)[C@@H](O)[C@H](O)[C@H]3O)C[C@]12C [Rg1, ginsenoside Rg1] | did not increase mitochondria production | – | – | – | – | – | – | – | – | –
ginsenoside Rg3 | did not increase mitochondria production | – | – | – | – | – | – | – | – | –
